Results as given in patent US7145010B2, “Tert-alkylphenoxy-substituted polycyclic compounds” (BASF Aktiengesellschaft, priority 2001, dated 2006).
Converted amounts (≈) assume the structure as drawn.

What was measured:
[1] = Solubility in extremely nonpolar to polar solvents
[2] = Homogeneous incorporation into aqueous polymer dispersions (Example 25 of WO-A-99/40123 repeated); format: physicochemical
Source text: Example 25 of WO-A-99/40123 was repeated to prepare aqueous polymer dispersions containing 15% by weight of the fluorescent colorant of Example 2 or […] of the near infrared absorber of Example 6 in homogeneous dispersion. The corresponding phenoxy-substituted derivatives, by contrast, were only incorporable with homogeneous results up to a concentration of respectively 7 and 1% by weight.

Row | Molecule | Solubility in Isopropanol (50° C.) [1] [mg/mL] | Solubility in Pentane (25° C.) [1] [mg/mL] | Solubility in Toluene (25° C.) [1] [mg/mL] | Concentration contained in homogeneous dispersion in aqueous polymer dispersion [2] [% by weight]
1 | 1:1 mixture of N,N′-bis(2,6-diisopropylphenyl)-1,6,8,11,16,18-hexa(p-tert-octylphenoxy)-quaterrylene-3,4:13,14-tetracarboxylic diimide and N,N′-bis(2,6-diisopropyl-phenyl)-1,6,8,11,16,19-hexa(p-tert-octylphenoxy)quaterrylene-3,4:13,14-tetracarboxylic diimide [Example 6] | 49 | 55 | >500 | –
2 | CC(C)c1cccc(C(C)C)c1N1C(=O)c2cc(Oc3ccc(C(C)(C)CC(C)(C)C)cc3)c3c4c(Oc5ccc(C(C)(C)CC(C)(C)C)cc5)cc5c6c(cc(Oc7ccc(C(C)(C)CC(C)(C)C)cc7)c(c7c(Oc8ccc(C(C)(C)CC(C)(C)C)cc8)cc(c2c37)C1=O)c64)C(=O)N(c1c(C(C)C)cccc1C(C)C)C5=O [Example 2] | 92 (≈ 60.2 mM) | 81 (≈ 53 mM) | >400 | 15
3 | CC(C)c1cccc(C(C)C)c1N1C(=O)c2ccc3c4c(Oc5ccc(C(C)(C)CC(C)(C)C)cc5)cc5c6c(ccc(c7c(Oc8ccc(C(C)(C)CC(C)(C)C)cc8)cc(c2c37)C1=O)c64)C(=O)N(c1c(C(C)C)cccc1C(C)C)C5=O [Example 4] | 59 (≈ 52.7 mM) | 55 (≈ 49.1 mM) | >250 | –
4 | CC(C)c1cccc(C(C)C)c1N1C(=O)c2cc(Oc3ccc(C(C)(C)CC(C)(C)C)cc3)c3c4cccc5c(Oc6ccc(C(C)(C)CC(C)(C)C)cc6)ccc(c6c(Oc7ccc(C(C)(C)CC(C)(C)C)cc7)cc(c2c36)C1=O)c54 [Example 1] | 56 (≈ 51.2 mM) | 53 (≈ 48.4 mM) | >250 | –
5 | CCCCCCCCCCCCN1C(=O)c2ccc3c4c(Oc5ccc(C(C)(C)CC(C)(C)C)cc5)cc5c6c(ccc(c7c(Oc8ccc(C(C)(C)CC(C)(C)C)cc8)cc(c2c37)C1=O)c64)C(=O)N(CCCCCCCCCCCC)C5=O [Example 5] | 47 (≈ 41.4 mM) | 24 (≈ 21.1 mM) | 155 (≈ 136 mM) | –
6 | CC(C)c1cccc(C(C)C)c1N1C(=O)c2cc(Oc3ccc(C(C)(C)CC4CCCCC4)cc3)c3c4c(Oc5ccc(C(C)(C)CC6CCCCC6)cc5)cc5c6c(cc(Oc7ccc(C(C)(C)CC8CCCCC8)cc7)c(c7c(Oc8ccc(C(C)(C)CC9CCCCC9)cc8)cc(c2c37)C1=O)c64)C(=O)N(c1c(C(C)C)cccc1C(C)C)C5=O [Example 3] | 87 (≈ 53.3 mM) | 65 (≈ 39.8 mM) | >350 | –
